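Protocol summary: plate cells (96-well), add compound at 5 concentrations, incubate 48 h, interpolate endpoints linearly. GI50 is the concentration that inhibits growth by half.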 Activity calls are given as the source filed them. Rule as the data show it: active = GI50 up to about 1.1 µM and inactive = higher.
How the values were obtained:
Experiment in all cases: DTP human tumour cell line panel, 48 h
[1] = test system: SK-MEL-5
[2] = test system: SW-620
[3] = test system: PC-3
[4] = test system: U-251
[5] = test system: LOX IMVI
[6] = test system: HCC 2998
[7] = test system: Malme-3M
[8] = test system: HT-29
[9] = test system: NCI-H226
[10] = test system: SNB-19
[11] = test system: 786-0
[12] = test system: HOP-92
[13] = test system: NCI-H460
[14] = test system: M14
[15] = test system: OVCAR-4
[16] = test system: A549
[17] = test system: SK-OV-3
[18] = test system: CCRF-CEM
[19] = test system: SR
[20] = test system: RPMI-8226

| SMILES | GI50 [1] | GI50 [2] | GI50 [3] | GI50 [4] | GI50 [5] | GI50 [6] | GI50 [7] | GI50 [8] | GI50 [9] | GI50 [10] | GI50 [11] | GI50 [12] | GI50 [13] | GI50 [14] | GI50 [15] | GI50 [16] | GI50 [17] | GI50 [18] | GI50 [19] | GI50 [20] |
| --- | --- | --- | --- | --- | --- | --- | --- | --- | --- | --- | --- | --- | --- | --- | --- | --- | --- | --- | --- | --- |
| O=C(OCCN=c1c2ccccc2ccc2ccccc12)c1ccc([N+](=O)[O-])cc1 | > 100 µM (inactive) | > 100 µM (inactive) | > 100 µM (inactive) | > 100 µM (inactive) | > 100 µM (inactive) | > 100 µM (inactive) | > 100 µM (inactive) | > 100 µM (inactive) | > 100 µM (inactive) | > 100 µM (inactive) | > 100 µM (inactive) | > 100 µM (inactive) | > 100 µM (inactive) | > 100 µM (inactive) | > 100 µM (inactive) | > 100 µM (inactive) | > 100 µM (inactive) | > 100 µM (inactive) | > 100 µM (inactive) | > 100 µM (inactive) |
| O=C(O)c1cc(/N=C/c2ccccc2O)cc(C(=O)O)c1 | > 100 µM (inactive) | > 100 µM (inactive) | > 100 µM (inactive) | > 100 µM (inactive) | > 100 µM (inactive) | > 100 µM (inactive) | > 100 µM (inactive) | > 100 µM (inactive) | > 100 µM (inactive) | > 100 µM (inactive) | > 100 µM (inactive) | > 100 µM (inactive) | > 100 µM (inactive) | > 100 µM (inactive) | > 100 µM (inactive) | > 100 µM (inactive) | > 100 µM (inactive) | > 100 µM (inactive) | > 100 µM (inactive) | > 100 µM (inactive) |
| O=c1c2cnccc2cc2c3ccccc3ccn12 | 46.1 µM (inactive) | 49.8 µM (inactive) | 77.8 µM (inactive) | 68.4 µM (inactive) | 18.9 µM (inactive) | 53.7 µM (inactive) | 57.3 µM (inactive) | 28.2 µM (inactive) | > 100 µM (inactive) | > 100 µM (inactive) | 84.7 µM (inactive) | > 100 µM (inactive) | 5.78 µM (inactive) | > 100 µM (inactive) | 50.4 µM (inactive) | 45.8 µM (inactive) | > 100 µM (inactive) | 36.6 µM (inactive) | 2.03 µM (inactive) | 19.9 µM (inactive) |
| COc1cc(/C=C/c2cc(/C=C/c3ccc(O)c(OC)c3)oc(=O)c2)ccc1O | 4.99 µM (inactive) | 3.13 µM (inactive) | 3.91 µM (inactive) | 3.07 µM (inactive) | 3.71 µM (inactive) | 1.81 µM (inactive) | 2.66 µM (inactive) | 2.84 µM (inactive) | 10.5 µM (inactive) | 7.57 µM (inactive) | 5.62 µM (inactive) | 4.67 µM (inactive) | 2.29 µM (inactive) | 5.09 µM (inactive) | 3.84 µM (inactive) | 3.17 µM (inactive) | 9.04 µM (inactive) | 3.64 µM (inactive) | 3.07 µM (inactive) | 2.3 µM (inactive) |
| Cn1cccc1-c1ccc(-c2ccc(CO)[se]2)[se]1 | 11.4 µM (inactive) | 2.15 µM (inactive) | 24.5 µM (inactive) | 9.53 µM (inactive) | 19.1 µM (inactive) | 2.02 µM (inactive) | 66.1 µM (inactive) | 12.6 µM (inactive) | 0.307 µM (active) | 17.8 µM (inactive) | 14.2 µM (inactive) | > 100 µM (inactive) | 10.9 µM (inactive) | 16.1 µM (inactive) | 2.61 µM (inactive) | 15.2 µM (inactive) | 22.1 µM (inactive) | 11.5 µM (inactive) | 17.1 µM (inactive) | 7.98 µM (inactive) |
| O=c1ccc(=O)c2c1c1[nH]c3ccccc3c1c1c(=O)c3ccccc3c(=O)c21 | > 10 µM (inactive) | 8.22 µM (inactive) | > 10 µM (inactive) | > 10 µM (inactive) | > 10 µM (inactive) | > 10 µM (inactive) | > 10 µM (inactive) | > 10 µM (inactive) | > 10 µM (inactive) | > 10 µM (inactive) | > 10 µM (inactive) | 0.333 µM (active) | > 10 µM (inactive) | > 10 µM (inactive) | > 10 µM (inactive) | > 10 µM (inactive) | > 10 µM (inactive) | 3.19 µM (inactive) | > 10 µM (inactive) | > 10 µM (inactive) |
| COC/C=C\[C@]1(O)CCCC[C@@H]1CC(OC)OC | > 100 µM (inactive) | > 100 µM (inactive) | > 100 µM (inactive) | > 100 µM (inactive) | > 100 µM (inactive) | > 100 µM (inactive) | > 100 µM (inactive) | > 100 µM (inactive) | > 100 µM (inactive) | > 100 µM (inactive) | > 100 µM (inactive) | > 100 µM (inactive) | > 100 µM (inactive) | > 100 µM (inactive) | > 100 µM (inactive) | > 100 µM (inactive) | > 100 µM (inactive) | 37.1 µM (inactive) | 81.1 µM (inactive) | 97.7 µM (inactive) |
| CC[C@@]1(O)C(=O)OCc2c1cc1n(c2=O)Cc2c-1nc1ccc(O)cc1c2[Si](C)(C)C(C)(C)C [AR-67] | < 0.01 µM (active) | < 0.01 µM (active) | < 0.0208 µM (active) | < 0.01 µM (active) | < 0.01 µM (active) | 0.0205 µM (active) | < 0.01 µM (active) | 0.0855 µM (active) | < 0.01 µM (active) | < 0.01 µM (active) | < 0.01 µM (active) | 0.0132 µM (active) | < 0.01 µM (active) | < 0.01 µM (active) | 0.0282 µM (active) | < 0.01 µM (active) | 0.557 µM (active) | < 0.01 µM (active) | < 0.01 µM (active) | < 0.0152 µM (active) |
| CC(C)(C)OC(=O)NCCNCCNc1ccccc1 | 62.1 µM (inactive) | > 100 µM (inactive) | > 100 µM (inactive) | > 100 µM (inactive) | > 100 µM (inactive) | > 100 µM (inactive) | > 100 µM (inactive) | > 100 µM (inactive) | > 100 µM (inactive) | > 100 µM (inactive) | > 100 µM (inactive) | > 100 µM (inactive) | > 100 µM (inactive) | > 100 µM (inactive) | > 100 µM (inactive) | > 100 µM (inactive) | > 100 µM (inactive) | > 100 µM (inactive) | > 100 µM (inactive) | > 100 µM (inactive) |
| COc1cc2cc(C(=O)N3C[C@H](CCl)c4c3cc(N)c3ccccc43)[nH]c2c(OC)c1OC | < 0.005 µM (active) | 0.0233 µM (active) | 0.0507 µM (active) | 0.279 µM (active) | 0.519 µM (active) | 1.93 µM (inactive) | 0.005 µM (active) | 0.00296 µM (active) | 9.51 µM (inactive) | 0.713 µM (active) | 5.11 µM (inactive) | 0.0489 µM (active) | 0.0239 µM (active) | 0.502 µM (active) | > 10 µM (inactive) | 1.3 µM (inactive) | 0.22 µM (active) | 0.051 µM (active) | 8.28 µM (inactive) | 0.0275 µM (active) |
| COC(=O)/C=C(/C=C1/C(C#N)=C(N)N(c2ccc(Cl)cc2)C1(C)/C(=C\C(=O)OC)C(=O)OC)C(=O)OC (stereo not given) | 15.1 µM (inactive) | 15.9 µM (inactive) | 12.9 µM (inactive) | 26.1 µM (inactive) | 17.1 µM (inactive) | 20 µM (inactive) | 25.1 µM (inactive) | 17 µM (inactive) | 24.1 µM (inactive) | 41.9 µM (inactive) | 18.1 µM (inactive) | 5.71 µM (inactive) | 19.5 µM (inactive) | 19.5 µM (inactive) | 18.9 µM (inactive) | 28.2 µM (inactive) | 33.7 µM (inactive) | 16.3 µM (inactive) | 28.5 µM (inactive) | 25.1 µM (inactive) |
| O=C(/C=C/c1ccccc1)CCN1CCCCC1 | 32.8 µM (inactive) | 18.8 µM (inactive) | 52.7 µM (inactive) | 23.6 µM (inactive) | 17.5 µM (inactive) | > 100 µM (inactive) | > 100 µM (inactive) | 19.7 µM (inactive) | > 100 µM (inactive) | > 100 µM (inactive) | 20.5 µM (inactive) | > 100 µM (inactive) | 40.7 µM (inactive) | 17.5 µM (inactive) | 53 µM (inactive) | 54.1 µM (inactive) | 75 µM (inactive) | 39.4 µM (inactive) | 25.9 µM (inactive) | 14.7 µM (inactive) |
| O=C1C(NCCc2cc(Br)c(O)c(Br)c2)=CC(=O)c2ncccc21 | 1.47 µM (inactive) | 4.24 µM (inactive) | 20.9 µM (inactive) | 5.55 µM (inactive) | 1.78 µM (inactive) | 6.58 µM (inactive) | 1.26 µM (inactive) | 3.63 µM (inactive) | 2.29 µM (inactive) | 3.86 µM (inactive) | 7.29 µM (inactive) | 28.1 µM (inactive) | 2.37 µM (inactive) | 2.51 µM (inactive) | 6 µM (inactive) | 3.52 µM (inactive) | 14.8 µM (inactive) | 3.39 µM (inactive) | 1.87 µM (inactive) | 4.79 µM (inactive) |

— ChEMBL document CHEMBL1201862, “PubChem BioAssay data set” (2004)
